Results taken from patent publication US20110039763A1, “TARGETED ANTIMICROBIAL MOIETIES” (C3 JIAN, INC., priority 2009, published 2011).
Entries after “also recorded” stand apart in the source; their conditions may differ.

Tests used:
microorganisms [1] = assay: Peptide activities: targeting/binding, antimicrobial, growth or phenotype altering (Tables 7, 8); format: cell-based; conditions: peptides having multiple activities
microorganisms [2] = assay: Targeting peptide binding to target microorganisms (Tables 3, 10, 12); conditions: microorganism(s) the targeting peptide binds, preferably 1x PBS
microorganisms [3] = assay: Morphology, biofilm and growth disrupting peptides (Table 5); format: cell-based; parameters: key: A: Peptide aggregates; B: Less hyphal formation; Clumps; Diffuse clumps and small polyps; F: Diffuse growth; H: Thin; I: Growth inhibition; Microcolony formation; Rippled; Small polyps; Thick; W: Halo formation on top, microlonies on bottom
Description: In certain embodiments peptides that induce alterations in phenotype or other biological activities can also be used as antimicrobial effector moieties.

[4] = binding in aqueous buffers that varied with peptide solubility
[5] = binding in aqueous buffers varied with peptide solubility

Substance	Activities (microorganisms [1])	Target(s) (microorganisms [2]; [4])	Organism, effect: MRSA (microorganisms [3])	Organism, effect: S. epidermidis (microorganisms [3])	Organism, effect: C. jeikeium (microorganisms [3])	Organism, effect: M. luteus (microorganisms [3])	Organism, effect: S. mutans (microorganisms [3]; S. mutans, class symbol)	Organism, effect: S. pneumoniae (microorganisms [3])	Organism, effect: B. subtilis (microorganisms [3])	Organism, effect: C. jejuni (microorganisms [3])	Target(s) (microorganisms [2]; [5])	Organism, effect: P. aeruginosa (microorganisms [3]; P. aeruginosa)
PF-029: peptide having multiple activities (NSTNE; Peptide with targeting and/or antimicrobial activity)	G B	S. epidermidis; also recorded: M. luteus; also recorded: C. albicans; also recorded: C. jejuni	MRSA (M)	–	–	–	–	–	–	–	–	–
PF-031: peptide having multiple activities (MPHHSTTSSRIVVPAHQSNMASTPNLSITP; Peptide with targeting and/or antimicrobial activity)	G B	M. luteus; also recorded: C. albicans	MRSA (M)	–	–	–	–	–	–	–	–	–
PF-034: peptide having multiple activities (EPKKKHFPKMESASSEP; Peptide with targeting and/or antimicrobial activity)	G B	M. luteus	–	S. epidermidis (A)	–	–	–	–	–	–	–	–
PF-035: peptide having multiple activities (SFYESY; Peptide with targeting and/or antimicrobial activity)	G B	S. epidermidis and M. luteus and E. coli and C. albicans and MRSA and C. jeikeium and C. jejuni	MRSA (M)	–	–	–	–	–	–	–	–	–
PF-036: peptide having multiple activities (ILNRLSRIVSNEVTSLIYSLK; Peptide with targeting and/or antimicrobial activity)	G B	S. epidermidis and M. luteus and P. mirabilis and E. coli and C. albicans and MRSA and S. pneumoniae and C. jejuni	MRSA (R)	S. epidermidis (S)	C. jeikeium (A)	M. luteus (A)	–	–	–	–	–	–
PF-041: peptide having multiple activities (ELLVILPGFI; Peptide with targeting and/or antimicrobial activity)	G B	MRSA	MRSA (M)	S. epidermidis (R)	–	–	–	–	–	–	–	–
PF-043: peptide having multiple activities (MIKNETAYQMNELLVIRSAYAK; Peptide with targeting and/or antimicrobial activity)	G B	M. luteus; also recorded: C. jejuni	MRSA (R)	S. epidermidis (D)	C. jeikeium (A)	M. luteus (C)	–	–	–	–	–	–
PF-045: peptide having multiple activities (LDINDYRSTY; Peptide with targeting and/or antimicrobial activity)	G B	S. epidermidis; also recorded: E. coli; also recorded: E. faecalis; also recorded: C. jejuni	MRSA (S)	–	–	–	–	–	–	–	–	–
PF-046: peptide having multiple activities (LDFYLTKHLTLML; Peptide with targeting and/or antimicrobial activity)	G B	E. coli; also recorded: E. faecalis; also recorded: C. jeikeium	MRSA (R)	S. epidermidis (C)	C. jeikeium (R)	–	–	–	–	–	–	–
PF-048: peptide having multiple activities (LYFAFKKYQERVNQAPNIEY; Peptide with targeting and/or antimicrobial activity)	G B	S. epidermidis and M. luteus and E. coli and MRSA and C. jeikeium and C. jejuni	MRSA (W)	S. epidermidis (D)	C. jeikeium (S)	–	–	–	–	–	–	–
PF-049: peptide having multiple activities (AYYLKRREEKGK; Peptide with targeting and/or antimicrobial activity)	G B	S. epidermidis and MRSA and C. jeikeium and C. jejuni	MRSA (S)	–	–	–	–	–	–	–	–	–
PF-051: peptide having multiple activities (RFFNFEIKKSTKVDYVFAHVDLSDV; Peptide with targeting and/or antimicrobial activity)	G B	S. epidermidis and M. luteus and P. aeruginosa and C. albicans and MRSA and S. pneumoniae and E. faecalis	MRSA (D)	S. epidermidis (D)	–	M. luteus (C)	S. mutans (D)	S. pneumoniae (D)	–	–	–	–
PF-052: peptide having multiple activities (QELINEAVNLLVKSK; Peptide with targeting and/or antimicrobial activity)	G B	S. epidermidis and M. luteus and E. coli and MRSA and E. faecalis and C. jeikeium and C. jejuni	MRSA (R)	S. epidermidis (S)	C. jeikeium (D)	M. luteus (A)	–	–	–	–	–	–
PF-058: peptide having multiple activities (FADQSQDNA; Peptide with targeting and/or antimicrobial activity)	G B	S. epidermidis and M. luteus and E. coli and C. albicans and MRSA and C. jeikeium and C. jejuni	MRSA (M)	–	–	–	–	–	–	–	–	–
PF-061: peptide having multiple activities (GYNSYKAVQDVKTHSEEQRVTAKK; Peptide with targeting and/or antimicrobial activity)	G B	S. epidermidis; also recorded: S. pneumoniae	–	S. epidermidis (R)	–	–	–	S. pneumoniae (R)	B. subtilis (R)	C. jejuni (R)	–	–
PF-064: peptide having multiple activities (DYYGKE; Peptide with targeting and/or antimicrobial activity)	G B	E. coli	MRSA (M)	S. epidermidis (D)	–	–	–	–	–	–	–	–
PF-065: peptide having multiple activities (LEKNTRDNYFIHAIDRIYINTSKGLFPESELVAWG; Peptide with targeting and/or antimicrobial activity)	G B	M. luteus and E. coli and P. aeruginosa and C. albicans and MRSA and S. pneumoniae and C. jeikeium and C. jejuni	MRSA (R)	S. epidermidis (D)	C. jeikeium (A)	–	–	–	–	–	–	–
PF-069: peptide having multiple activities (chain 1 FDPVPLKKDKSASKHSHKHNH; chain 2 FDPVPLKKDKSASKHSHKHNH; Peptide with targeting and/or antimicrobial activity)	G B	E. faecalis; also recorded: C. jejuni	–	–	–	–	–	–	B. subtilis (D)	C. jejuni (R)	–	–
PF-070: peptide having multiple activities (chain 1 SMVKSEIVDLLNGEDNDD; chain 2 SMVKSEIVDLLNGEDNDD; Peptide with targeting and/or antimicrobial activity)	G B	S. epidermidis; also recorded: C. jejuni	–	–	–	–	–	–	B. subtilis (D)	–	–	–
PF-074: peptide having multiple activities (chain 1 RDIHPIYFMTKD; chain 2 RDIHPIYFMTKD; Peptide with targeting and/or antimicrobial activity)	G B	–	MRSA (M)	S. epidermidis (D)	–	–	–	–	–	–	S. epidermidis and M. luteus and MRSA	–
PF-099: peptide having multiple activities (chain 1 EIIAYLEGRFANA; chain 2 EIIAYLEGRFANA; Peptide with targeting and/or antimicrobial activity)	G B	–	–	S. epidermidis (D)	C. jeikeium (C)	–	–	–	–	–	S. epidermidis; also recorded: M. luteus; also recorded: E. coli; also recorded: C. jeikeium	–
PF-123: peptide having multiple activities (chain 1 TTRPQVAEDRQLDDALKETFPASDPISP; chain 2 TTRPQVAEDRQLDDALKETFPASDPISP; Peptide with targeting and/or antimicrobial activity)	G B	–	–	S. epidermidis (M)	–	–	–	–	–	–	M. luteus; also recorded: E. coli	–
PF-128: peptide having multiple activities (chain 1 GIKVVAARFEEIQFSENFDSIILA; chain 2 GIKVVAARFEEIQFSENFDSIILA; Peptide with targeting and/or antimicrobial activity)	G B	–	–	S. epidermidis (D)	–	–	–	–	–	–	M. luteus; also recorded: P. aeruginosa; also recorded: E. faecalis	P. aeruginosa (C)
PF-129: peptide having multiple activities (chain 1 MKLLARDPWVCAWNDIW; chain 2 MKLLARDPWVCAWNDIW; Peptide with targeting and/or antimicrobial activity)	G B	–	–	S. epidermidis (M)	C. jeikeium (R)	–	–	–	–	–	S. epidermidis and MRSA and E. faecalis and C. jeikeium and C. jejuni	–
